The text below walks through data of patent US20250312269A1, “ADMINISTRATION OF A P[…] BY INT[…]” (RESET PHARMACEUTICALS, INC., priority 2022, published 2025).

SMILES strings stand for the structures. Where two headings read alike, the source gives them in different places.

Series [1] in a line: Human IM simulations of psilocin exposure, one (native) absorption rate. The conditions noted are these: 'native' absorption rate taken from DMT IM model. The protocol:
The model that was used is shown schematically in FIG. 6, mathematically the analytical solution is shown in equations (9)-(14).
Using the absorption rate from modelling the IM DMT data and the human systemic psilocin PK parameters, human IM simulations were run over 1-12 mg doses and the simulated PK profiles can be seen in FIG. 8. […] It was therefore investigated which dose produces the therapeutic plasma level (5 ng/mL) quickly, this can be seen in Table 4.

The nature of series [2]: XRPD analysis after micronisation. As to conditions: wet bead milling in decafluoropentane. The class given is physicochemical. On the procedure:
(§1) The micronised sample was then separated from the silica beads and transferred to a petri dish and left at room temperature to allow for evaporation of the solvent overnight (approximately 18 hours). The dried sample was then collected and characterised by PSD and XRPD.
X-ray powder diffraction (XRPD) analysis was carried out using a Bruker D2 Phaser powder diffractometer equipped with a LynxEye detector. The specimens were located at the centre of a silicon sample holder within a 5 mm pocket. The samples were continuously spun during data collection and scanned using a step size of 0.02° two theta (28) between […] to 60° two theta, the detailed parameters are summarised in Table 11. The data was processed using Diffrac Plus EVA software (Version 3.1).

Series [3] is described as follows: Two-compartment IV bolus PK model fitted to published psilocin plasma data after psilocybin IV. Also noted: species or system human. The conditions noted are these: estimate (95% CI). On the procedure: All analysis was performed using the software R and RStudio, with models being defined using analytical and ODE solutions.
Systemic PK parameters were derived for published human bolus psilocybin IV data. Human IV PK data for psilocin after psilocybin was administered was taken from Hasler et al. “Determination of psilocin and 4-hydroxyindole-3-acetic acid in plasma by HPLC-ECD and pharmacokinetic profiles of oral and intravenous psilocybin in man”. Pharm Acta Helv. 1997 June; 72(3):175-84. Model selection was performed by assessing visual fit to data and the respective model AIC's of a one compartment and two compartment IV PK model. These systemic human PK parameters were then used for human intramuscular injection simulations by simulating the PK profiles over a range of doses and absorption rates.
It is assumed that the generation of psilocin is instantaneous and complete once psilocybin is absorbed.
An IV two compartment model best described the IV data from FIG. 2. A two-compartment model gave a good description of the raw data capturing the Cmax and terminal phase well, FIG. 3. The systemic PK parameters can be seen in Table 1 and there are low errors in the parameter estimates.

The nature of series [4]: Solubility assessment in excipients / vehicles.
The nature of series [5]: One-compartment IM PK model fitted to published DMT IM data. The conditions noted are these: estimate (95% CI). More on the design: species or system human. The text has this:
(§2) DMT IM data was digitised from Kaplan et al. “Blood and urine levels of N,N-dimethyltryptamine following administration of psychoactive dosages to human subjects” Psychopharmacologia 38, 239-245 (1974). A one compartment model was used with linear absorption and clearance to describe the human IM data from Kaplan et al. 1974, and is shown schematically in FIG. 3. Mathematically, this model is a series of two linked ordinary differential equations (ODE's) given in equations (7)-(8).
Constant ka is the absorption rate constant (units 1/min), Cl is the clearance (units mL/min), Vc is the volume of distribution of the central compartment (units mL).
The model gives a satisfactory fit of the absorption phase, seen in FIG. 5, where the line is the simulate PK model and the points are the raw data. The fitted PK parameters can be found in Table 3.

Series [6] is described as follows: Non-compartmental analysis of DMT IM bioavailability from digitised published data. The class given is in vivo. As to conditions: human, blood, intramuscular, 0.7 mg/kg, 0.7 mg/kg IM.
Text: as §2
The points are the mean data, and the error bars are plus and minus the SEM. Non-compartmental analysis (NCA) was run to calculate the dose normalised AUC at four dose levels. The bioavailability of the IM data was then calculated, equation (3), at all four dose levels seen in Table 2, due to the IM dose being 0.7 mg/kg the 0.4 mg/kg bioavailability values were taken and therefore bioavailability was assumed to be one for the rest of the modelling.

Series [7] can be described thus: Particle size distribution (PSD) analysis by laser diffraction of feed and micronised compound. The class given is physicochemical. The conditions noted are these: primary pressure of 4 bar, lens R1/R3/R5 per sample. The protocol: In order to provide a small and homogeneous particle size of psychedelic compound in the final suspensions, psilocybin and psilocin were micronised before use. Micronisation was performed by wet bead milling using decafluoropentane as the antisolvent. In a glass vial, 200 mg psychedelic compound and 2 g of 1 mm silica beads were weighed. 3 mL of the antisolvent was added for psilocybin and 2 mL for psilocin. The samples were vortexed for approximately 15 seconds then milled at 530 rpm for 60 minutes.
as §1
Particle size analysis was carried out, in single analysis, by laser diffraction using a Sympatec Helos particle size analyser, equipped with a RODOS dry dispersion unit and ASPIROS feeder unit. The lens and primary pressures were varied for each compound tested.

For series [8] the following is noted: IV administration; cited from earlier work.
For series [9] the following is noted: cited from earlier work.

Consider `CN(C)CCc1c[nH]c2cccc(O)c12` [psilocin, 4-hydroxy-N,N-dimethyltryptamine], for which, in series [1], the absorption half-life is 4.53 min. Further, the “chemical degradation upon micronisation (XRPD)” value in series [2] is “no significant chemical degradation”. In addition, in series [3] (clearance, fit to 1 mg psilocybin IV data), the CI was 3810 (3340, 4290) ml/min. Moreover, the k21 in [3] (distribution rate from peripheral compartment) was 0.0489 (0.0388, 0.0591) /min. For the same compound, the k12 in series [3] (distribution rate to peripheral compartment) was 0.176 (0.144, 0.208) /min. Besides, the V in series [3] (volume of distribution of central compartment, fit to 1 mg psilocybin IV data) was 88600 (77300, 99900) ml. Further, in series [4] (initial solution trials in aqueous vehicles), the “solubility versus pH” value is “higher solubility at acidic pH”. The “solubility in DMSO and NMP” value in series [4] (non-micronised) was “good solubility”.

With `CN(C)CCc1c[nH]c2ccccc12` [DMT, N,N-dimethyltryptamine], the ka in series [5] (absorption rate constant) was 0.153 (−0.311, 0.616) ^ /min. Further, the CI in series [5] (clearance) is recorded as 21900 (4690, 39100) ml/min. In addition, in [5] (0.7 mg/kg IM), the V is 353000 (−397000, 1100000) ml. For the same compound, the bioavailability in series [6] (AUC of IV infusion dose 0.05 mg/kg) was determined as 46.3%; in series [6] (AUC of IV infusion dose 0.1 mg/kg), 77.8%; in [6] (AUC of IV infusion dose 0.2 mg/kg), 132%; in series [6] (AUC of IV infusion dose 0.4 mg/kg), 162%.

As for `CN(C)CCc1c[nH]c2cccc(OP(=O)(O)O)c12` [Feed psilocybin, psilocybin], in series [7], the D10 was 1.16 μm, the D50 is listed as 5.46 μm and the D90 was 16.32 μm.

As to `CN(C)CCc1c[nH]c2cccc(OP(=O)(O)O)c12` [psilocybin, [3-(2-dimethylaminoethyl)-1H-indol-4-yl]dihydrogen phosphate], in series [8], the “duration of the psychological effects” value is on record as 20 minutes and the onset of action was 1 to 2 min. The “chemical degradation upon micronisation (XRPD)” value in series [2] was “no significant chemical degradation”. In series [9] (oral dosing), the duration is 4 to 8 h, the “maximum effect (time)” value was 60 to 90 min and the onset of action is 20 to 40 min. The bioavailability entry in series [9] (reported, oral dosing context) was “approximately 50%”. Further, the “solubility in all the excipients tested” value in series [4] (non-micronised, 20 excipients) is given as “poor solubility”.

As for `CN(C)CCc1c[nH]c2cccc(OP(=O)(O)O)c12` [Micronised psilocybin, psilocybin], in [7], the D10 stood at 0.45 μm, the D50 is 1.20 μm and the D90 was found to be 3.13 μm.

On to `CN(C)CCc1c[nH]c2cccc(O)c12` [Feed psilocin, psilocin], for which, in series [7], the D10 worked out at 20.36 μm, the D50 worked out at 106.05 μm and the D90 amounted to 232.08 μm.

With `CN(C)CCc1c[nH]c2cccc(O)c12` [Micronised psilocin, psilocin], in series [7], the D10 is on record as 0.44 μm, the D50 was 1.07 μm and the D90 was determined as 2.27 μm.
